Laboratory results: US8389527B2, “Substituted imidazopyridazines useful as kinase inhibitors” (Bristol-Myers Squibb Company, priority 2008, dated 2013)

What was measured:
[1] = molecular target: T1, recombinant CK2A2 (Homo sapiens, UniProt P19784); assay: CK2 kinase assay (CK2A2), [γ-33P]ATP filter-binding; type: biochemical
T1 construct: purchased Upstate Biotechnology
Experimental: (§1) The effectiveness of compounds of the present invention as inhibitors of protein kinases can be readily tested by assays known to those skilled in the art. For example, in vitro protein kinase assays may be conducted with a relevant purified protein kinase and an appropriate synthetic substrate to determine the inhibitory activities of the compounds. […] Reaction mixtures were incubated at 30° C. for 1 h, and reaction products were captured by binding to phosphocellulose (P81) filter plates. Incorporation of radioactive phosphate into the peptide substrate was determined by liquid scintillation counting. The potency of compounds in inhibiting CK2 is expressed as IC50, defined as the concentrations of compounds required to inhibit the enzymatic activity by 50%.

[2] = molecular target: T2, recombinant CK2A1 (Homo sapiens, UniProt P68400); assay: CK2 kinase assay (CK2A1), [γ-33P]ATP filter-binding; type: biochemical
T2 construct: purchased Invitrogen
Experimental: as §1

[3] = system: HCT116; assay: Cell proliferation inhibition assay (MTT, CellTiter96); type: cell-based; conditions: Homo sapiens, HCT-116; HCT116 cells, 72 h with compound, MTT readout
Experimental: B. Cell Proliferation Inhibition Assay
Compounds were evaluated for their ability to inhibit cell proliferation, using an assay that measures mitochondrial metabolic activity, that is directly correlated with cell numbers. Cells were plated at 2000 cells/well in 96-well plates and were cultured for 24 h in RPMI-1640 supplemented with 2% fetal bovine serum, before test compounds were added. Compounds were diluted in culture medium such that the final concentration of dimethyl sulfoxide never exceeded 1%. Following the addition of compounds, the cells were cultured for an additional 72 h before cell viability was determined by measuring the conversion of 3-(4,5-dimethylthiazol-2-yl)-2,5-diphenyltetrazolium bromide (MTT) dye using the CellTiter96 kit (Promega).

[4] = recombinant CK2A2 5 nM, ATP 5 μM, 10 μM peptide substrate, 30° C. 1 h
[5] = recombinant CK2A1 10 nM, ATP 25 μM, 10 μM peptide substrate, 30° C. 1 h
[6] = comparison examples of U.S. 2007/038314 (Table 2)

T2 sequence (P68400 whole entry): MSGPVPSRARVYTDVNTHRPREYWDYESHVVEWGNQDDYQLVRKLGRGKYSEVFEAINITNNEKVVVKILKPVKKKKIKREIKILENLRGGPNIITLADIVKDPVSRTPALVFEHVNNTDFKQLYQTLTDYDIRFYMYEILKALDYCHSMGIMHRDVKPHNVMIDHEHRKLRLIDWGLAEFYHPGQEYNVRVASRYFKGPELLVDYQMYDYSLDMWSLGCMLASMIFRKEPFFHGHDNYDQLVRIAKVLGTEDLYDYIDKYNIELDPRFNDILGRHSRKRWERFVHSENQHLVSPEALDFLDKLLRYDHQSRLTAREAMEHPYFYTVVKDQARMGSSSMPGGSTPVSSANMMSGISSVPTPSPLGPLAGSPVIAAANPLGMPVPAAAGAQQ
T1 sequence (P19784 whole entry): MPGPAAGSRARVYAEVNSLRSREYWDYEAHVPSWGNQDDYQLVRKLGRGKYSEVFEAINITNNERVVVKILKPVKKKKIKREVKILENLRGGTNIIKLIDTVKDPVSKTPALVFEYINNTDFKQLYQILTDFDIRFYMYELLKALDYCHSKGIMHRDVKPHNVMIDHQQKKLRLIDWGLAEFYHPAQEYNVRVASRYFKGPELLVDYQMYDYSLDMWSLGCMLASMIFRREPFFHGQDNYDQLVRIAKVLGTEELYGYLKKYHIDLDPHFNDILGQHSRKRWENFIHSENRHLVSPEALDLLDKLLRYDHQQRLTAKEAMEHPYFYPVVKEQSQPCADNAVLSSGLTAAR

Structure (SMILES)	IC50 [1, 4] [nM]	IC50 [2, 5] [nM]	IC50 [3] [nM]	IC50 [1, 6] [nM]	IC50 [2, 6] [nM]
CN[C@H](C)C(=O)N[C@H]1CC[C@H](Nc2cc(NC3CC3)c3ncc(C(=O)Nc4ccnc(Cl)c4)n3n2)CC1 (relative stereo) [Example 154, N-(2-chloro-4-pyridinyl)-8-(cyclopropylamino)-6-((trans-4-((N-methyl-D-alanyl)amino)cyclohexyl)amino)imidazo[1,2-b] pyridazine-3-carboxamide]	0.2	38.5	210		
N[C@H](Cc1cscn1)C(=O)N[C@H]1CC[C@H](Nc2cc(NC3CC3)c3ncc(C(=O)Nc4ccnc(Cl)c4)n3n2)CC1 (relative stereo) [Example 179, N-(2-chloro-4-pyridinyl)-8-(cyclopropylamino)-6-((trans-4-((3-(1,3-thiazol-4-yl)-D-alanyl)amino)cyclohexyl)amino)imidazo[1,2-b]pyridazine-3-carboxamide]	0.7	13.8	920		
N[C@H]1CC[C@H](Nc2cc(NC3CCC3)c3ncc(C(=O)Nc4ccncc4)n3n2)CC1 [Example 3, 6-((trans-4-aminocyclohexyl)amino)-8-(cyclobutylamino)-N-4-pyridinylimidazo[1,2-b]pyridazine-3-carboxamide]	15	35	80		
C[C@@H](N)C(=O)N[C@H]1CC[C@H](Nc2cc(Nc3ccccn3)c3ncc(C(=O)Nc4ccncc4F)n3n2)CC1 [Example 6, 6-((trans-4-(D-alanylamino)cyclohexyl)amino)-N-(3-fluoro-4-pyridinyl)-8-(2-pyridinylamino)imidazo[1,2-b]pyridazine-3-carboxamide]	3	11	90		
O=C(Nc1ccnc(F)c1)c1cnc2c(NC3CC3)cc(N[C@H]3CC[C@H](O)CC3)nn12 [Example 13, 8-(cyclopropylamino)-N-(2-fluoro-4-pyridinyl)-6-((trans-4-hydroxycyclohexyl)amino)imidazo[1,2-b]pyridazine-3-carboxamide]	17	42	170		
N[C@H]1CC[C@H](Nc2cc(NC3CC3)c3ncc(C(=O)Nc4ccnc(F)c4)n3n2)CC1 [Example 25C, 6-((trans)-4-aminocyclohexylamino)-8-(cyclopropylamino)-N-(2-fluoropyridin-4-yl)imidazo[1,2-b]pyridazine-3-carboxamide]	11	86	170		
O=C(Nc1ccnc(F)c1)c1cnc2c(NC3CC3)cc(N[C@H]3CC[C@H](N4CCOCC4)CC3)nn12 [Example 27, 8-(cyclopropylamino)-N-(2-fluoropyridin-4-yl)-6-((trans)-4-morpholinocyclohexylamino)imidazo[1,2-b]pyridazine-3-carboxamide]	72	247	430		
N#CCC(=O)N[C@H]1CC[C@H](Nc2cc(NC3CC3)c3ncc(C(=O)Nc4ccnc(Cl)c4)n3n2)CC1 [Example 34, N-(2-chloropyridin-4-yl)-6-((trans)-4-(2-cyanoacetamido)cyclohexylamino)-8-(cyclopropylamino)imidazo[1,2-b]pyridazine-3-carboxamide]	0.8	11.5	170		
Nc1cc(N[C@H]2CC[C@H](N)CC2)nn2c(C(=O)Nc3ccncc3)cnc12 [Example 39, 8-amino-6-(4-aminocyclohexylamino)-N-(pyridin-4-yl)imidazo[1,2-b]pyridazine-3-carboxamide]	43	102	9950		
O=C(Nc1ccncc1F)c1cnc2c(Nc3cccc(N[C@H]4CC[C@H](O)CC4)n3)cc(N[C@H]3CC[C@H](O)CC3)nn12 [Example 45, N-(3-fluoro-4-pyridinyl)-6-((trans-4-hydroxycyclohexyl)amino)-8-((6-((trans-4-hydroxycyclohexyl)amino)-2-pyridinyl)amino)imidazo[1,2-b]pyridazine-3-carboxamide]	8	34	140		
CC(=O)Nc1cccc(NC(=O)c2cnc3c(NC4CC4)cc(N[C@H]4CC[C@H](N)CC4)nn23)c1 [Example 83, N-(3-acetamidophenyl)-6-((trans)-4-aminocyclohexylamino)-8-(cyclopropylamino)imidazo[1,2-b]pyridazine-3-carboxamide]	4390	12300	> 1000		
O=C(Nc1ccncc1F)c1cnc2c(NC3CC3)cc(N[C@H]3CC[C@H](NC(=O)[C@H]4CCCN4)CC3)nn12 [Example 104, 8-(cyclopropylamino)-N-(3-fluoro-4-pyridinyl)-6-((trans-4-(D-prolylamino)cyclohexyl)amino)imidazo[1,2-b]pyridazine-3-carboxamide]	10	38	200		
NCC(=O)N[C@H]1CC[C@H](Nc2cc(NC3CC3)c3ncc(C(=O)Nc4ccncc4F)n3n2)CC1 [Example 124, 8-(cyclopropylamino)-N-(3-fluoro-4-pyridinyl)-6-((trans-4-(glycylamino)cyclohexyl)amino)imidazo[1,2-b]pyridazine-3-carboxamide]	8	31	300		
C[C@H](N)C(=O)N[C@H]1CC[C@H](Nc2cc(NC3CC3)c3ncc(C(=O)Nc4ccnc(F)c4)n3n2)CC1 [Example 134, 6-((trans-4-(L-alanylamino)cyclohexyl)amino)-8-(cyclopropylamino)-N-(2-fluoro-4-pyridinyl)imidazo[1,2-b]pyridazine-3-carboxamide]	13	55	170		
N#CCC(=O)N[C@H]1CC[C@H](Nc2cc(NC3CC3)c3ncc(C(=O)Nc4ccnc(F)c4)n3n2)CC1 [Example 138, 6-((trans-4-((cyanoacetyl)amino)cyclohexyl)amino)-8-(cyclopropylamino)-N-(2-fluoro-4-pyridinyl)imidazo [1,2-b]pyridazine-3-carboxamide]	9	21	610		
NCCCC(=O)N[C@H]1CC[C@H](Nc2cc(NC3CC3)c3ncc(C(=O)Nc4ccnc(F)c4)n3n2)CC1 [Example 143, 6-((trans-4-((4-aminobutanoyl)amino)cyclohexyl)amino)-8-(cyclopropylamino)-N-(2-fluoro-4-pyridinyl)imidazo [1,2-b]pyridazine-3-carboxamide]	70	199	340		
O=C(Nc1ccnc(F)c1)c1cnc2c(NC3CC3)cc(N[C@H]3CC[C@H](NC(=O)C4CCCNC4)CC3)nn12 (stereo partly drawn) [Example 144, 8-(cyclopropylamino)-N-(2-fluoro-4-pyridinyl)-6-((trans-4-((3-piperidinylcarbonyl)amino)cyclohexyl)amino) imidazo[1,2-b]pyridazine-3-carboxamide]	70	183	> 2500		
C[C@H](CN)C(=O)N[C@H]1CC[C@H](Nc2cc(NC3CC3)c3ncc(C(=O)Nc4ccnc(Cl)c4)n3n2)CC1 [Example 146, 6-((trans-4-(((2R)-3-amino-2-methylpropanoyl)amino)cyclohexyl)amino) N-(2-chloro-4-pyridinyl)-8-(cyclopropylamino)imidazo [1,2-b]pyridazine-3-carboxamide]	1.5	25.9	590		
CNC(C)(C)C(=O)N[C@H]1CC[C@H](Nc2cc(NC3CC3)c3ncc(C(=O)Nc4ccnc(Cl)c4)n3n2)CC1 [Example 159, N-(2-chloro-4-pyridinyl)-8-(cyclopropylamino)-6-((trans-4-((N,2-dimethylalanyl)amino)cyclohexyl)amino) imidazo[1,2-b]pyridazine-3-carboxamide]	2.1	34.1	280		
NCC(=O)N[C@H]1CC[C@H](Nc2cc(NC3CC3)c3ncc(C(=O)Nc4ccnc(Cl)c4)n3n2)CC1 [Example 163, N-(2-chloro-4-pyridinyl)-8-(cyclopropylamino)-6-((trans-4-(glycylamino)cyclohexyl)amino)imidazo [1,2-b]pyridazine-3-carboxamide]	0.4	29.6	560		
COC(=O)CN[C@H]1CC[C@H](Nc2cc(NC3CC3)c3ncc(C(=O)Nc4ccncc4F)n3n2)CC1 [Example 523, methyl N-(trans-4-((8-(cyclopropylamino)-3-((3-fluoro-4-pyridinyl)carbamoyl)imidazo[1,2-b]pyridazin-6-yl)amino)cyclohexyl)glycinate]		57	388		
CCOc1ccc(Nc2cc(N[C@H]3CC[C@H](N)CC3)nn3ccnc23)cc1 [I(1), reference compound]				10300	> 50000
N[C@H]1CC[C@H](Nc2cc(Nc3ccccc3)c3nccn3n2)CC1 [I(7), reference compound]				> 50000	> 50000
Cc1ccc(Nc2cc(N[C@H]3CC[C@H](N)CC3)nn3ccnc23)nc1 [II(16), reference compound]					> 50000
